From ChEMBL document CHEMBL1153043, “Synthesis and evaluation of 1-(benzo[b]thiophen-2-yl)ethanone analogues as novel anti-osteoporosis agents acting on BMP-2 promotor” (Bioorg Med Chem Lett, 2009)

Key:
[1] = tested on: Rattus norvegicus; experiment: Antiosteoporotic activity in ovariectomized Sprague-Dawley rat assessed as trabecular bone volume at 7.5 mg/kg/day, po for 90 days by bone histomorphometry; assay type: functional, Trabecula
[2] = tested on: Rattus norvegicus; experiment: Antiosteoporotic activity in ovariectomized Sprague-Dawley rat assessed as trabecular bone volume at 15 mg/kg/day, po for 90 days by bone histomorphometry; assay type: functional, Trabecula
[3] = tested on: Rattus norvegicus; experiment: Antiosteoporotic activity in ovariectomized Sprague-Dawley rat assessed as trabecular bone volume at 30 mg/kg/day, po for 90 days by bone histomorphometry; assay type: functional, Trabecula
[4] = tested on: Rattus norvegicus; experiment: Antiosteoporotic activity in ovariectomized Sprague-Dawley rat assessed as trabecula resorption surface at 7.5 mg/kg/day, po for 90 days by bone histomorphometry; assay type: functional
[5] = tested on: Rattus norvegicus; experiment: Antiosteoporotic activity in ovariectomized Sprague-Dawley rat assessed as trabecula resorption surface at 15 mg/kg/day, po for 90 days by bone histomorphometry; assay type: functional
[6] = tested on: Rattus norvegicus; experiment: Antiosteoporotic activity in ovariectomized Sprague-Dawley rat assessed as trabecula resorption surface at 30 mg/kg/day, po for 90 days by bone histomorphometry; assay type: functional
[7] = tested on: Rattus norvegicus; experiment: Antiosteoporotic activity in ovariectomized Sprague-Dawley rat assessed as trabecula formation surface at 7.5 mg/kg/day, po for 90 days by bone histomorphometry; assay type: functional
[8] = tested on: Rattus norvegicus; experiment: Antiosteoporotic activity in ovariectomized Sprague-Dawley rat assessed as trabecula formation surface at 15 mg/kg/day, po for 90 days by bone histomorphometry; assay type: functional
[9] = tested on: Rattus norvegicus; experiment: Antiosteoporotic activity in ovariectomized Sprague-Dawley rat assessed as trabecula formation surface at 30 mg/kg/day, po for 90 days by bone histomorphometry; assay type: functional
[10] = tested on: Rattus norvegicus; experiment: Antiosteoporotic activity in ovariectomized Sprague-Dawley rat assessed as mineral apposition rate at 7.5 mg/kg/day, po for 90 days by bone histomorphometry; assay type: functional
[11] = tested on: Rattus norvegicus; experiment: Antiosteoporotic activity in ovariectomized Sprague-Dawley rat assessed as mineral apposition rate at 15 mg/kg/day, po for 90 days by bone histomorphometry; assay type: functional
[12] = tested on: Rattus norvegicus; experiment: Antiosteoporotic activity in ovariectomized Sprague-Dawley rat assessed as mineral apposition rate at 30 mg/kg/day, po for 90 days by bone histomorphometry; assay type: functional
[13] = tested on: Rattus norvegicus; experiment: Antiosteoporotic activity in ovariectomized Sprague-Dawley rat assessed as osteo cortex mineralization rate at 7.5 mg/kg/day, po for 90 days by bone histomorphometry; assay type: functional
[14] = tested on: Rattus norvegicus; experiment: Antiosteoporotic activity in ovariectomized Sprague-Dawley rat assessed as osteo cortex mineralization rate at 15 mg/kg/day, po for 90 days by bone histomorphometry; assay type: functional
[15] = tested on: Rattus norvegicus; experiment: Antiosteoporotic activity in ovariectomized Sprague-Dawley rat assessed as osteo cortex mineralization rate at 30 mg/kg/day, po for 90 days by bone histomorphometry; assay type: functional
[16] = tested on: Rattus norvegicus; experiment: Antiosteoporotic activity in ovariectomized Sprague-Dawley rat assessed as average osteoid width at 7.5 mg/kg/day, po for 90 days by bone histomorphometry; assay type: functional
[17] = tested on: Rattus norvegicus; experiment: Antiosteoporotic activity in ovariectomized Sprague-Dawley rat assessed as average osteoid width at 15 mg/kg/day, po for 90 days by bone histomorphometry; assay type: functional
[18] = tested on: Rattus norvegicus; experiment: Antiosteoporotic activity in ovariectomized Sprague-Dawley rat assessed as average osteoid width at 30 mg/kg/day, po for 90 days by bone histomorphometry; assay type: functional
[19] = Toxicity in po dosed Kunming mouse; assay type: organism-based; conditions: in vivo
[20] = Toxicity in ip dosed Kunming mouse; assay type: organism-based; conditions: in vivo
[21] = tested on: Rattus norvegicus; experiment: Toxicity in sham operated Sprague-Dawley rat assessed as effect on general behavior at 150 mg/kg/day, po for 90 days; assay type: organism-based; parameters: route oral; conditions: in vivo, 2160 h
[22] = tested on: Rattus norvegicus; experiment: Toxicity in sham operated Sprague-Dawley rat assessed as effect on glutamine-oxaloacetic transaminase level at 150 mg/kg/day, po for 90 days; assay type: organism-based; parameters: route oral; conditions: in vivo, 2160 h
[23] = tested on: Rattus norvegicus; experiment: Toxicity in sham operated Sprague-Dawley rat assessed as effect on glutamic-pyruvic transaminase level at 150 mg/kg/day, po for 90 days; assay type: organism-based; parameters: route oral; conditions: in vivo, 2160 h
[24] = tested on: Rattus norvegicus; experiment: Toxicity in sham operated Sprague-Dawley rat assessed as effect on total bilirubin level at 150 mg/kg/day, po for 90 days; assay type: organism-based; parameters: route oral; conditions: in vivo, 2160 h
[25] = tested on: Rattus norvegicus; experiment: Toxicity in sham operated Sprague-Dawley rat assessed as effect on alkaline phosphatase level at 150 mg/kg/day, po for 90 days; assay type: organism-based; parameters: route oral; conditions: in vivo, 2160 h
[26] = tested on: Rattus norvegicus; experiment: Toxicity in sham operated Sprague-Dawley rat assessed as effect on total protein level at 150 mg/kg/day, po for 90 days; assay type: organism-based; parameters: route oral; conditions: in vivo, 2160 h
[27] = tested on: Rattus norvegicus; experiment: Toxicity in sham operated Sprague-Dawley rat assessed as effect on albumin level at 150 mg/kg/day, po for 90 days; assay type: organism-based; parameters: route oral; conditions: in vivo, 2160 h
[28] = tested on: Rattus norvegicus; experiment: Toxicity in sham operated Sprague-Dawley rat assessed as effect on triglycerides level at 150 mg/kg/day, po for 90 days; assay type: organism-based; parameters: route oral; conditions: in vivo, 2160 h
[29] = tested on: Rattus norvegicus; experiment: Toxicity in sham operated Sprague-Dawley rat assessed as effect on total cholesterol level at 150 mg/kg/day, po for 90 days; assay type: organism-based; parameters: route oral; conditions: in vivo, 2160 h
[30] = tested on: Rattus norvegicus; experiment: Toxicity in sham operated Sprague-Dawley rat assessed as effect on direct-high density lipoprotein level at 150 mg/kg/day, po for 90 days; assay type: organism-based; parameters: route oral; conditions: in vivo, 2160 h
[31] = tested on: Rattus norvegicus; experiment: Toxicity in sham operated Sprague-Dawley rat assessed as effect on direct-low density lipoprotein level at 150 mg/kg/day, po for 90 days; assay type: organism-based; parameters: route oral; conditions: in vivo, 2160 h
[32] = tested on: Rattus norvegicus; experiment: Toxicity in sham operated Sprague-Dawley rat assessed as effect on glucose level at 150 mg/kg/day, po for 90 days; assay type: organism-based; parameters: route oral; conditions: in vivo, 2160 h
[33] = tested on: Rattus norvegicus; experiment: Toxicity in sham operated Sprague-Dawley rat assessed as effect on blood urea nitrogen level at 150 mg/kg/day, po for 90 days; assay type: organism-based; parameters: route oral; conditions: in vivo, 2160 h
[34] = tested on: Rattus norvegicus; experiment: Toxicity in sham operated Sprague-Dawley rat assessed as effect on creatinine level at 150 mg/kg/day, po for 90 days; assay type: organism-based; parameters: route oral; conditions: in vivo, 2160 h
[35] = tested on: Rattus norvegicus; experiment: Toxicity in sham operated Sprague-Dawley rat assessed as effect on calcium level at 150 mg/kg/day, po for 90 days; assay type: organism-based; parameters: route oral; conditions: in vivo, 2160 h
[36] = tested on: Rattus norvegicus; experiment: Toxicity in sham operated Sprague-Dawley rat assessed as effect on bone histomorphometric parameters at 150 mg/kg/day, po for 90 days; assay type: organism-based; parameters: route oral; conditions: in vivo, 2160 h
[37] = tested on: Rattus norvegicus; experiment: Antiosteoporotic activity in po dosed ovariectomized Sprague-Dawley rat assessed as trabecular bone volume administered for 90 days by bone histomorphometry; assay type: functional, organism-based; conditions: Trabecula
[38] = tested on: Rattus norvegicus; experiment: Antiosteoporotic activity in po dosed ovariectomized Sprague-Dawley rat assessed as trabecula formation surface administered for 90 days by bone histomorphometry; assay type: functional, organism-based
[39] = tested on: Rattus norvegicus; experiment: Antiosteoporotic activity in po dosed ovariectomized Sprague-Dawley rat assessed as trabecula resorption surface administered for 90 days by bone histomorphometry; assay type: functional, organism-based
[40] = tested on: Rattus norvegicus; experiment: Antiosteoporotic activity in po dosed ovariectomized Sprague-Dawley rat assessed as mineral apposition rate administered for 90 days by bone histomorphometry; assay type: functional, organism-based
[41] = tested on: Rattus norvegicus; experiment: Antiosteoporotic activity in po dosed ovariectomized Sprague-Dawley rat assessed as osteo cortex mineralization rate administered for 90 days by bone histomorphometry; assay type: functional, organism-based
[42] = tested on: Rattus norvegicus; experiment: Antiosteoporotic activity in po dosed ovariectomized Sprague-Dawley rat assessed as average osteoid width administered for 90 days by bone histomorphometry; assay type: functional, organism-based
[43] = Enhancement of BMP-2 expression in mouse MC3T3-E1 cells assessed as upregulation rate at 4 uM; assay type: functional, cell-based
[44] = tested on: Rattus norvegicus; experiment: Antiosteoporotic activity in ovariectomized Sprague-Dawley rat assessed as trabecula resorption surface at 10 mg/kg/day, po for 90 days by bone histomorphometry; assay type: functional
[45] = tested on: Rattus norvegicus; experiment: Antiosteoporotic activity in ovariectomized Sprague-Dawley rat assessed as trabecula resorption surface at 20 mg/kg/day, po for 90 days by bone histomorphometry; assay type: functional
[46] = tested on: Rattus norvegicus; experiment: Antiosteoporotic activity in ovariectomized Sprague-Dawley rat assessed as trabecula resorption surface at 40 mg/kg/day, po for 90 days by bone histomorphometry; assay type: functional
[47] = tested on: Rattus norvegicus; experiment: Antiosteoporotic activity in ovariectomized Sprague-Dawley rat assessed as trabecula formation surface at 10 mg/kg/day, po for 90 days by bone histomorphometry; assay type: functional
[48] = tested on: Rattus norvegicus; experiment: Antiosteoporotic activity in ovariectomized Sprague-Dawley rat assessed as trabecula formation surface at 20 mg/kg/day, po for 90 days by bone histomorphometry; assay type: functional
[49] = tested on: Rattus norvegicus; experiment: Antiosteoporotic activity in ovariectomized Sprague-Dawley rat assessed as trabecula formation surface at 40 mg/kg/day, po for 90 days by bone histomorphometry; assay type: functional
[50] = tested on: Rattus norvegicus; experiment: Antiosteoporotic activity in ovariectomized Sprague-Dawley rat assessed as mineral apposition rate at 10 mg/kg/day, po for 90 days by bone histomorphometry; assay type: functional
[51] = tested on: Rattus norvegicus; experiment: Antiosteoporotic activity in ovariectomized Sprague-Dawley rat assessed as mineral apposition rate at 20 mg/kg/day, po for 90 days by bone histomorphometry; assay type: functional
[52] = tested on: Rattus norvegicus; experiment: Antiosteoporotic activity in ovariectomized Sprague-Dawley rat assessed as mineral apposition rate at 40 mg/kg/day, po for 90 days by bone histomorphometry; assay type: functional
[53] = tested on: Rattus norvegicus; experiment: Antiosteoporotic activity in ovariectomized Sprague-Dawley rat assessed as osteo cortex mineralization rate at 10 mg/kg/day, po for 90 days by bone histomorphometry; assay type: functional
[54] = tested on: Rattus norvegicus; experiment: Antiosteoporotic activity in ovariectomized Sprague-Dawley rat assessed as osteo cortex mineralization rate at 20 mg/kg/day, po for 90 days by bone histomorphometry; assay type: functional
[55] = tested on: Rattus norvegicus; experiment: Antiosteoporotic activity in ovariectomized Sprague-Dawley rat assessed as osteo cortex mineralization rate at 40 mg/kg/day, po for 90 days by bone histomorphometry; assay type: functional
[56] = tested on: Rattus norvegicus; experiment: Antiosteoporotic activity in ovariectomized Sprague-Dawley rat assessed as average osteoid width at 10 mg/kg/day, po for 90 days by bone histomorphometry; assay type: functional
[57] = tested on: Rattus norvegicus; experiment: Antiosteoporotic activity in ovariectomized Sprague-Dawley rat assessed as average osteoid width at 20 mg/kg/day, po for 90 days by bone histomorphometry; assay type: functional
[58] = tested on: Rattus norvegicus; experiment: Antiosteoporotic activity in ovariectomized Sprague-Dawley rat assessed as average osteoid width at 40 mg/kg/day, po for 90 days by bone histomorphometry; assay type: functional
[59] = tested on: Rattus norvegicus; experiment: Antiosteoporotic activity in ovariectomized Sprague-Dawley rat assessed as trabecular bone volume at 10 mg/kg/day, po for 90 days by bone histomorphometry; assay type: functional, Trabecula
[60] = tested on: Rattus norvegicus; experiment: Antiosteoporotic activity in ovariectomized Sprague-Dawley rat assessed as trabecular bone volume at 20 mg/kg/day, po for 90 days by bone histomorphometry; assay type: functional, Trabecula
[61] = tested on: Rattus norvegicus; experiment: Antiosteoporotic activity in ovariectomized Sprague-Dawley rat assessed as trabecular bone volume at 40 mg/kg/day, po for 90 days by bone histomorphometry; assay type: functional, Trabecula

Q: What does the source list for `CC(=O)c1cc2ccccc2s1`?
A: Activity [1]: 14.41%; Activity [2]: 19.39%; Activity [3]: 21.02%; Activity [4]: 7.81%; Activity [5]: 5.16%; Activity [6]: 4.74%; Activity [7]: 7.4%; Activity [8]: 6.64%; Activity [9]: 6.39%; Activity [10]: 2.32 µm/day; Activity [11]: 2.19 µm/day; Activity [12]: 2.18 µm/day; Activity [13]: 3.42 µm/day; Activity [14]: 3.14 µm/day; Activity [15]: 3.22 µm/day; Activity [16]: 11.4 µm; Activity [17]: 10.9 µm; Activity [18]: 10.8 µm; LD50 [19]: 5000 mg/kg; LD50 [20]: 1580 mg/kg; Activity [21]: Non-toxic; Activity [22]: Non-toxic; Activity [23]: Non-toxic; Activity [24]: Non-toxic; Activity [25]: Non-toxic; Activity [26]: Non-toxic; Activity [27]: Non-toxic; Activity [28]: Non-toxic; Activity [29]: Non-toxic; Activity [30]: Non-toxic; Activity [31]: Non-toxic; Activity [32]: Non-toxic; Activity [33]: Non-toxic; Activity [34]: Non-toxic; Activity [35]: Non-toxic; Activity [36]: Non-toxic; Activity [37]: Dose-dependent effect; Activity [38]: Dose-dependent effect; Activity [39]: Dose-dependent effect; Activity [40]: Dose-dependent effect; Activity [41]: Dose-dependent effect; Activity [42]: Dose-dependent effect; Activity [43]: 35.6%

Q: Which results are given for `CC(=O)c1cc2ccccc2o1`?
A: Activity [44]: 7.84%; Activity [45]: 7.15%; Activity [46]: 5.3%; Activity [47]: 7.26%; Activity [48]: 6.75%; Activity [49]: 6.74%; Activity [50]: 2.31 µm/day; Activity [51]: 2.34 µm/day; Activity [52]: 2.2 µm/day; Activity [53]: 3.28 µm/day; Activity [54]: 3.51 µm/day; Activity [55]: 3.3 µm/day; Activity [56]: 11.2 µm; Activity [57]: 11.6 µm; Activity [58]: 11 µm; Activity [43]: 33.5%; Activity [59]: 12.39%; Activity [60]: 13.13%; Activity [61]: 17.5%
